Results reported in US8486719B2, “Multiplex assay methods and compositions” (PerkinElmer BioSignal, Inc., priority 2009, dated 2013).

Legend:
MEK1 = MEK1 (Homo sapiens, UniProt Q02750); test: One well multiplexed assay, 572 nm signal: ERK2 phosphorylation by MEK1 with increasing ATP; type: biochemical; conditions: signal detected at 572 nm, FIG. 4; read-out: EC50 for ATP-induced ERK2 phosphorylation
Description: (§1) The kinase MEK1 is expressed with a histidine tag (6×His) at either the C- or N-terminus.
(§2) An antibody which recognizes MEK1 phosphorylated ERK2 (mouse anti-pTpY ERK1/2) is associated with acceptor beads containing thioxene, 9,10-bis(phenylethynyl)anthracene and rubrene via anti-mouse IgG antibody binding. The antibody used, p-Tyr-100, is a generic highly promiscuous anti-phosphotyrosine antibody which recognizes both mono (pY) and dual-(pTpY) phosphorylated forms of ERK2.
(§3) Increasing concentrations of ATP were used to promote the phosphorylation of ERK2 by MEK1.

MEK1/ERK2 = MEK1/ERK2 (Homo sapiens, UniProt Q02750); test: One well multiplexed assay, 615 nm signal: interaction between MEK1 and ERK2 with increasing ATP; type: binding; conditions: signal detected at 615 nm, FIG. 4; read-out: EC50 for ATP-induced MEK1/ERK2 dissociation
Description: as §1, §2, §3

[1] = target: T1, human bombesin (hBombesin) 3 (Homo sapiens, UniProt P32247); test: Surface expression of FLAG-tagged bombesin receptor on phthalocyanine-loaded cells, anti-FLAG acceptor beads; type: cell-based; conditions: 10 nM or 300 nM agonist, 1 hour at 37° C., Balb3T3 hBombesin 3 FLAG cells
T1 construct: expressed in transfected cells; host or cells: Balb3T3
T1 sequence (P32247 1-399): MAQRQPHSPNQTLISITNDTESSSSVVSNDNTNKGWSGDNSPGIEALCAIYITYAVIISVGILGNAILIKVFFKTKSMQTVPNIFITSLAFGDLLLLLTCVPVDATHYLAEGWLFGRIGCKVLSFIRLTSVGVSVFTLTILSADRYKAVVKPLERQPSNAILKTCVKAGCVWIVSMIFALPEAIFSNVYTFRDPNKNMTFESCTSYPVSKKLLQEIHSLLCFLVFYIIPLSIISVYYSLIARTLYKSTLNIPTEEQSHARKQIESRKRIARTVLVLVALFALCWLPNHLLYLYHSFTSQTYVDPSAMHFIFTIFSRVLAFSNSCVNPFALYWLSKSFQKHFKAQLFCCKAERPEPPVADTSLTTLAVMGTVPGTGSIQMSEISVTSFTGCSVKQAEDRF
Description: Bombesin receptor is a well-characterized cell surface receptor which is known to internalize and decrease in cell surface expression following agonist (bombesin) binding. Balb3T3 cells expressing human bombesin (hBombesin) 3 with a FLAG tag and Balb3T3 cells expressing human bombesin 3 without a FLAG tag were used to monitor the expression and binding activity of the bombesin receptor, GPCR in these cells.
About 10 nM or 300 nM of the Bombesin peptide agonist, (6-14)[D-tyr6, b-Ala11, Phe13, Nle14] was incubated with Balb3T3 hBombesin 3 FLAG cells and Balb3T3 hBombesin WT cells for 1 hour at 37° C. after which cells were harvested, labeled with 10 μM to 30 μM Al^3+-phthalocyanine. The phthalocyanine-loaded cells are washed several times in MES or HEPES buffer following the incubation to remove excess phthalocyanine. About 20 to 40 of the anti-FLAG antibody-conjugated acceptor beads including a thioxene and europium chelate emission system are added to the assay mix including MES or HEPES buffer and the phthalocyanine-loaded cells and incubated for 1 hour at room temperature. […] The FLAG-tagged hBombesin was detected with anti-FLAG Acceptor beads in the assay.

Chain of MEK1 (Q02750 whole entry, species assumed): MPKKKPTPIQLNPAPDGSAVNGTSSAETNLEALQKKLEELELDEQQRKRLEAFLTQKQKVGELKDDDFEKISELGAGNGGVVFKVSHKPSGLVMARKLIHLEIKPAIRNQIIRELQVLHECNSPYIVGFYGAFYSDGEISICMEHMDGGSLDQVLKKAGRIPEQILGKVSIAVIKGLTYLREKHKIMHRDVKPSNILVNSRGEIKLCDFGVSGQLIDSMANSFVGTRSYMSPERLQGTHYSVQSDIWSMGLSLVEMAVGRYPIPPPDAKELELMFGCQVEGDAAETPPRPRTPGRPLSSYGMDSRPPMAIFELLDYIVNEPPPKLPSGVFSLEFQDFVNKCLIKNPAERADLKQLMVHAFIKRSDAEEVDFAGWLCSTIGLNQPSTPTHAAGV
Chain of MEK1/ERK2 (Q02750 whole entry, species assumed): as above

Row | EC50 (MEK1) [nM] | EC50 (MEK1/ERK2) [nM] | Compound | surface expression of the bombesin receptor following agonist stimulation [1]
1 | ~1000 | ~1000 | Nc1ncnc2c1ncn2[C@@H]1O[C@H](COP(=O)(O)OP(=O)(O)OP(=O)(O)O)[C@@H](O)[C@H]1O [ATP] | 
2 |  |  | (6-14)[D-tyr6, b-Ala11, Phe13, Nle14] | Changes in surface expression of the bombesin receptor following agonist stimulation are detected
